Results taken from ChEMBL document CHEMBL3885861, “Open TG-GATES”.

Organism: Rattus norvegicus
Assay: Open TG-GATES - Regimen: Single
Assay type: toxicity, organism-based, Sprague-Dawley
Parameters: regimen Single, gender Male, age 6 weeks
Conditions: in vivo, po, 0 mg/kg, route gavage, dose level Control; for APTT / Bas / Eos / Fbg / Hb / Ht / Lym / MCH / MCHC / MCV / Mono / Neu / PT / Plat / RBC / Ret / WBC: tissue Blood; for KIDNEY_L / KIDNEY_R / KIDNEY_TOTAL: tissue Kidney; for LIVER: tissue Liver; for A/G / ALP / ALT / AST / BUN / CRE / Ca / Cl / DBIL / GLC / IP / K / LDH / Na / PL / RALB / TBIL / TC / TG / TP / gamma-GTP: tissue Plasma

Work on `CN/C(=N/CCSCc1nc[nH]c1C)NC#N` [CIMETIDINE] yielded a TERMINAL_BW (3 h) of 213.9 g, an APTT (3 h) of 18.4 s and a Bas (3 h) of 0%. It also gave an Eos (3 h) of 1%, a Fbg (3 h) of 217.6 mg/dL and a Hb (3 h) of 12.7 g/dL. The Ht (3 h) was 37.4%, the Lym (3 h) was 75.4% and the MCH (3 h) was 21.3 pg. It also gave an MCHC (3 h) of 34%, an MCV (3 h) of 62.5 fL and a Mono (3 h) of 3.2%. It also gave a Neu (3 h) of 19.2%, a PT (3 h) of 12.6 s and a Plat (3 h) of 139.7 x10_4/uL. It also gave an RBC (3 h) of 598.4 x10_4/ul, a Ret (3 h) of 7.9% and a WBC (3 h) of 95.7 x10_2/uL. The KIDNEY_L (3 h) was 1 g, the KIDNEY_R (3 h) was 1 g and the KIDNEY_TOTAL (3 h) was 2 g. It also gave an LIVER (3 h) of 10.1 g, an A/G (3 h) of 1.7 and an ALP (3 h) of 1080.4 IU/L. It also gave an ALT (3 h) of 37.4 IU/L, an AST (3 h) of 71.2 IU/L and a BUN (3 h) of 12.4 mg/dL. The CRE (3 h) was 0.3 mg/dL, the Ca (3 h) was 10.8 mg/dL and the Cl (3 h) was 102.6 meq/L. It also gave a DBIL (3 h) of 0.072 mg/dL, a GLC (3 h) of 189 mg/dL and an IP (3 h) of 8.8 mg/dL. It also gave a K (3 h) of 3.7 meq/L, an LDH (3 h) of 134.2 IU/L and a Na (3 h) of 140.8 meq/L. The PL (3 h) was 147.6 mg/dL, the RALB (3 h) was 3.4 g/dL and the TBIL (3 h) was 0.1 mg/dL. For the same compound, the TC (3 h) was 77.2 mg/dL, the TG (3 h) was 65 mg/dL and the TP (3 h) was 5.4 g/dL. It also gave a gamma-GTP (3 h) of 1.4 IU/L, a TERMINAL_BW (6 h) of 211.8 g and an APTT (6 h) of 19.8 s. It also gave a Bas (6 h) of 0%, an Eos (6 h) of 1% and a Fbg (6 h) of 219.2 mg/dL. It also gave a Hb (6 h) of 13.2 g/dL, a Ht (6 h) of 37.8% and a Lym (6 h) of 75.6%. The MCH (6 h) was 21.6 pg, the MCHC (6 h) was 34.7% and the MCV (6 h) was 62.2 fL. It also gave a Mono (6 h) of 3.4%, a Neu (6 h) of 18.8% and a PT (6 h) of 12.8 s. The Plat (6 h) was 127.2 x10_4/uL, the RBC (6 h) was 607.6 x10_4/ul and the Ret (6 h) was 8%. It also gave a WBC (6 h) of 107.6 x10_2/uL, a KIDNEY_L (6 h) of 1 g and a KIDNEY_R (6 h) of 1 g. The KIDNEY_TOTAL (6 h) was 1.9 g, the LIVER (6 h) was 9.5 g and the A/G (6 h) was 1.5. It also gave an ALP (6 h) of 902.6 IU/L, an ALT (6 h) of 38 IU/L and an AST (6 h) of 70.2 IU/L. For the same compound, the BUN (6 h) was 10.2 mg/dL, the CRE (6 h) was 0.4 mg/dL and the Ca (6 h) was 10.7 mg/dL. For the same compound, the Cl (6 h) was 101.6 meq/L, the DBIL (6 h) was 0.074 mg/dL and the GLC (6 h) was 195.4 mg/dL. It also gave an IP (6 h) of 9.7 mg/dL, a K (6 h) of 3.8 meq/L and an LDH (6 h) of 161.6 IU/L. The Na (6 h) was 140.6 meq/L, the PL (6 h) was 151.2 mg/dL and the RALB (6 h) was 3.3 g/dL. It also gave a TBIL (6 h) of 0.1 mg/dL, a TC (6 h) of 81.8 mg/dL and a TG (6 h) of 64.4 mg/dL. The TP (6 h) was 5.5 g/dL, the gamma-GTP (6 h) was 1.4 IU/L and the TERMINAL_BW (9 h) was 206.6 g. For the same compound, the APTT (9 h) was 17.6 s, the Bas (9 h) was 0% and the Eos (9 h) was 1%. For the same compound, the Fbg (9 h) was 222.6 mg/dL, the Hb (9 h) was 13.1 g/dL and the Ht (9 h) was 37.9%. For the same compound, the Lym (9 h) was 75.6%, the MCH (9 h) was 21.5 pg and the MCHC (9 h) was 34.6%. For the same compound, the MCV (9 h) was 62 fL, the Mono (9 h) was 3% and the Neu (9 h) was 19.2%. The PT (9 h) was 12.8 s, the Plat (9 h) was 128 x10_4/uL and the RBC (9 h) was 612 x10_4/ul. It also gave a Ret (9 h) of 7.6%, a WBC (9 h) of 93 x10_2/uL and a KIDNEY_L (9 h) of 0.9 g. For the same compound, the KIDNEY_R (9 h) was 0.9 g, the KIDNEY_TOTAL (9 h) was 1.8 g and the LIVER (9 h) was 8.7 g. It also gave an A/G (9 h) of 1.6, an ALP (9 h) of 842 IU/L and an ALT (9 h) of 30 IU/L. For the same compound, the AST (9 h) was 66.2 IU/L, the BUN (9 h) was 12.6 mg/dL and the CRE (9 h) was 0.3 mg/dL. For the same compound, the Ca (9 h) was 10.5 mg/dL, the Cl (9 h) was 102.2 meq/L and the DBIL (9 h) was 0.074 mg/dL. It also gave a GLC (9 h) of 189.2 mg/dL, an IP (9 h) of 10 mg/dL and a K (9 h) of 3.8 meq/L. The LDH (9 h) was 120.4 IU/L, the Na (9 h) was 140.8 meq/L and the PL (9 h) was 139 mg/dL. The RALB (9 h) was 3.3 g/dL, the TBIL (9 h) was 0.1 mg/dL and the TC (9 h) was 77.4 mg/dL. For the same compound, the TG (9 h) was 47.8 mg/dL, the TP (9 h) was 5.4 g/dL and the gamma-GTP (9 h) was 1.4 IU/L. For the same compound, the TERMINAL_BW (24 h) was 224.9 g, the APTT (24 h) was 18.8 s and the Bas (24 h) was 0.2%. The Eos (24 h) was 0.8%, the Fbg (24 h) was 218.6 mg/dL and the Hb (24 h) was 13.5 g/dL. It also gave a Ht (24 h) of 40%, a Lym (24 h) of 81.4% and an MCH (24 h) of 21.6 pg. It also gave an MCHC (24 h) of 33.8%, an MCV (24 h) of 63.8 fL and a Mono (24 h) of 3%. It also gave a Neu (24 h) of 13.2%, a PT (24 h) of 12.1 s and a Plat (24 h) of 130.4 x10_4/uL. The RBC (24 h) was 627.6 x10_4/ul, the Ret (24 h) was 7.2% and the WBC (24 h) was 98.2 x10_2/uL. The KIDNEY_L (24 h) was 1 g, the KIDNEY_R (24 h) was 1 g and the KIDNEY_TOTAL (24 h) was 2 g. The LIVER (24 h) was 11 g, the A/G (24 h) was 1.6 and the ALP (24 h) was 959.8 IU/L. For the same compound, the ALT (24 h) was 36.8 IU/L, the AST (24 h) was 64 IU/L and the BUN (24 h) was 15.6 mg/dL. It also gave a CRE (24 h) of 0.4 mg/dL, a Ca (24 h) of 10.9 mg/dL and a Cl (24 h) of 101.6 meq/L. It also gave a DBIL (24 h) of 0.1 mg/dL, a GLC (24 h) of 223.8 mg/dL and an IP (24 h) of 7.7 mg/dL. It also gave a K (24 h) of 4 meq/L, an LDH (24 h) of 147.6 IU/L and a Na (24 h) of 140.2 meq/L. It also gave a PL (24 h) of 158.6 mg/dL, an RALB (24 h) of 3.5 g/dL and a TBIL (24 h) of 0.2 mg/dL. It also gave a TC (24 h) of 79.8 mg/dL, a TG (24 h) of 118.8 mg/dL and a TP (24 h) of 5.6 g/dL. It also gave a gamma-GTP (24 h) of 1.8 IU/L.
